US20190315814A1, “LANTIBIOTIC VARIANTS AND USES THEREOF” (priority 2016, published 2019)
≈ marks a conversion by molar mass, not a printed value. Read-outs that look alike come from different tables or passages of the source.

What was measured:
[1] = system: Lactobacillus acidophilus (CCUG 4356); test: microbe, parasite or virus in culture; conditions: CCUG4356, read-out: MIC L. acidophilus
[2] = system: Peptostreptococcus anaerobius (ATCC 27337); test: microbe, parasite or virus in culture; conditions: ATCC27337, read-out: MIC P. anaerobius
[3] = system: Mycobacterium phlei (ATCC 11758); test: MIC assay against Mycobacterium phlei (acid-fast); type: cell-based; conditions: Mycolicibacterium phlei, ATCC11758; acid-fast microorganism; single site variants
[4] = system: Bifidobacterium breve (ATCC 15700); test: microbe, parasite or virus in culture; conditions: ATCC15700, read-out: MIC B. breve
Staphylococcus aureus = test: MIC assay against Staphylococcus aureus; type: cell-based; conditions: Staphylococcus aureus, ATCC700699, read-out: MIC S. aureus ATCC 700699
[5] = system: Clostridium difficile UNT103-1; test: Ileal cannulated Syrian hamster C. difficile infection model; type: in vivo, Golden Syrian hamsters
Procedure: Following ileal cannulation surgery and recovery, male Golden Syrian hamsters were inoculated with Clostridium difficile UNT103-1 (VA11, non epidemic (cdtB-, REA group J) Curtis Donskey, Cleveland VA Hospital, Cleveland, Ohio). On Day 1, at 24 hrs after infection, all animals received a single subcutaneous injection of clindamycin (10 mg/kg). Test article formulations were administered three times per day (TID), starting on Day 2 at 18 hours after Clindamycin injection, for 5 consecutive days (Days 2 through 6). Vancomycin (positive control) was administered once a day at 20 mg/kg on Days 2 through 6, and followed until Day 22 to assess recurrence. The cecal contents from all hamsters that died on study or euthanized at the end ([…]) were tested for C. difficile Toxin A and Toxin B (tgc BIOMICS ELISA Kit, cat# TGC-E002-1) and for C. difficile Spore counts. Spore titer was determined by incubating the cecal contents in 50% final concentration of ethanol for 60 minutes at room temperature, centrifuging and resuspending the pellet in nano-pure water. The resuspension is incubated at 65° C. for 15 minutes, centrifuged again and the pellet resuspended again in nano-pure water. […] After 48 hours of anaerobic incubation, spore counts are determined as colony forming units (CFUs).

[6] = system: Clostridium difficile UNT103-1; test: Second non-cannulated Syrian hamster C. difficile infection model, oral gavage dose range-finding; type: in vivo, Golden Syrian hamsters
Procedure: Following the recovery phase, male Golden Syrian hamsters were inoculated with Clostridium difficile UNT103-1 (VA11, non epidemic (cdtB-, REA group J) Curtis Donskey, Cleveland VA Hospital, Cleveland, Ohio). On Day 1, at 24 hrs after infection, all animals received a single subcutaneous injection of clindamycin (10 mg/kg). Test article formulated at 3 to 5 different doses were administered three times per day (TID), starting on Day 2 at 18 hours after Clindamycin injection, for 5 consecutive days (Days 2 through 6), and followed until Day 22 to assess recurrence. Vancomycin (positive control) was administered once a day at 20 mg/kg on Days 2 through 6. Cecal spore counts and Toxins A and B were determined as described above.

[7] = system: Clostridium scindens (ATCC 35704); test: microbe, parasite or virus in culture; conditions: ATCC35704, read-out: MIC C. scindens
Clostridium difficile = test: C. difficile MIC assay (broth dilution); type: cell-based; conditions: Clostridioides difficile
Procedure: A minimum inhibitory concentration (MIC) assessment was performed using the anaerobic human gastrointestinal pathogen Clostridium difficile. A modification of the CLSI M11-A8 broth dilution method for Bacteroides fragilis susceptibility testing was used for C. difficile. (Methods for Dilution In Antimicrobial Susceptibility Tests for Bacteria That Grow Aerobically; Approved Standard-Eighth Edition. CLSI document M07-A8 (ISBN 1-56238-689-1). Vol. 29 No. 2. Clinical and Laboratory Standards Institute, USA, 2009). […] C. difficile was streaked and incubated on blood agar plates under anaerobic conditions. […] A 4 μL aliquot of each dilution was added to 196 μL of Reinforced Clostridial Medium (RCM), with test strains in wells of a 96 well plate. The final volume was 200 μL in each well.
Multisite variants were subsequently tested for specific antimicrobial activity in a C. difficile MIC assay (Table 10) (Methods for Antimicrobial Susceptibility Testing of Anaerobic Bacteria Approved Standard-Seventh Edition. CLSI document M11-A8 (ISBN 1-56238-790-1). Vol. 32 No. 5. Clinical and Laboratory Standards Institute, USA, 2012).

[8] = system: Clostridium difficile UNT103-1; test: Non-cannulated Syrian hamster C. difficile infection model, oral gavage; type: in vivo, Golden Syrian hamsters
[9] = vancomycin control, 20 mg/kg once a day

`CN[C@H](CC(C)C)C(=O)N[C@H]1C(=O)N[C@@H](CC(N)=O)C(=O)N[C@H]2C(=O)N[C@H]3C(=O)N[C@H](C(=O)N[C@H](C(=O)O)c4cc(O)cc(O)c4-c4cc3ccc4O)[C@H](O)c3ccc(c(Cl)c3)Oc3cc2cc(c3O[C@@H]2O[C@H](CO)[C@@H](O)[C@H](O)[C@H]2O[C@H]2C[C@](C)(N)[C@H](O)[C@H](C)O2)Oc2ccc(cc2Cl)[C@H]1O` [Vancomycin] was tested, and the MIC [1] was 1 µg/mL (≈ 0.69 µM), the MIC [2] was 1 µg/mL (≈ 0.69 µM) and the MIC [3] was 0.25 µg/mL (≈ 0.173 µM). For the same compound, the MIC [4] was 0.5 µg/mL (≈ 0.345 µM), the MIC (Staphylococcus aureus) was 2 µg/mL (≈ 1.38 µM) and the “Mean LOG10 CFU/mL of feces homogenates (cecal spore counts) at Day-22” value (shortened to “Mean LOG10 CFU/mL of feces homogenates”) ([5]; hamster, in vivo) was 3.24 LOG10 CFU/mL. The “Percent Survival at Day-22” value ([5]; ileal cannulated hamsters, test articles TID Days 2-6, vancomycin 20 mg/kg once a day) was 33%, the “Mean LOG10 CFU/mL of feces homogenates” value ([6]; hamster, in vivo, 20 mg/kg) was 6.66 LOG10 CFU/mL and the “Percent Survival at Day-22” value ([6]; hamster, in vivo, 20 mg/kg) was 50%. The “Toxin A level at Day-22” value [6, 9] was 292.6 ng/mL, the “Toxin B level at Day-22” value [6, 9] was 71.1 ng/mL and the MIC [7] was 1 µg/mL (≈ 0.69 µM). The MIC (Clostridium difficile; ATCC9689, strain ATCC 9689, first value of cell (first of two independent tests), read-out: C. difficile MIC ATCC 9689) was 4 µg/mL (≈ 2.76 µM), the MIC (Clostridium difficile; ATCC9689, strain ATCC 9689, multi-site variants, read-out: C. difficile MIC ATCC 9689) was 0.5 µg/mL (≈ 0.345 µM) and the MIC (Clostridium difficile; ATCC9689, strain ATCC 9689, second value of cell (second independent test), read-out: C. difficile MIC ATCC 9689) was 8 µg/mL (≈ 5.52 µM). For the same compound, the MIC (Clostridium difficile; ATCC43255, strain ATCC 43255, read-out: C. difficile MIC ATCC 43255) was 1 µg/mL (≈ 0.69 µM), the MIC (Clostridium difficile; ATCC43596, strain ATCC 43596, read-out: C. difficile MIC ATCC 43596) was 1 µg/mL (≈ 0.69 µM) and the MIC (Clostridium difficile; ATCC43597, strain ATCC 43597, read-out: C. difficile MIC ATCC 43597) was 0.5 µg/mL (≈ 0.345 µM). For the same compound, the MIC (Clostridium difficile; ATCC70057, read-out: C. difficile MIC ATCC 70057, strain ATCC 70057, first value of cell (first of two independent tests)) was 0.5 µg/mL (≈ 0.345 µM), the MIC (Clostridium difficile; ATCC70057, strain ATCC 70057, second value of cell (second independent test), read-out: C. difficile MIC ATCC 70057) was 1 µg/mL (≈ 0.69 µM) and the MIC (Clostridium difficile; ATCCBAA1805, strain ATCC BAA-1805, multi-site variants, read-out: C. difficile MIC ATCC BAA-1805) was 1 µg/mL (≈ 0.69 µM). It also gave an MIC (Clostridium difficile; ATCCBAA1808, strain ATCC BAA-1808, read-out: C. difficile MIC ATCC BAA-1808) of 0.5 µg/mL (≈ 0.345 µM), an MIC (Clostridium difficile; ATCCBAA1874, strain ATCC BAA-1874, read-out: C. difficile MIC ATCC BAA-1874) of 0.5 µg/mL (≈ 0.345 µM) and an MIC (Clostridium difficile; ATCCBAA1875, strain ATCC BAA-1875, multi-site variants, read-out: C. difficile MIC ATCC BAA-1875) of 0.5 µg/mL (≈ 0.345 µM). It also gave an MIC (Clostridium difficile; BAA1805, strain BAA-1805, single site variants, read-out: C. difficile MIC BAA-1805) of 1 µg/mL (≈ 0.69 µM), an MIC (Clostridium difficile; BAA1875, strain BAA-1875, single site variants, read-out: C. difficile MIC BAA-1875) of 1 µg/mL (≈ 0.69 µM) and an MIC (Clostridium difficile; strain 103-1 (UNT103-1), read-out: C. difficile MIC 103-1) of 1 µg/mL (≈ 0.69 µM). For the same compound, the MIC (Clostridium difficile; strain 107-1 (UNT107-1), read-out: C. difficile MIC 107-1) was 4 µg/mL (≈ 2.76 µM), the MIC (Clostridium difficile; strain BI1, read-out: C. difficile MIC BI1) was 8 µg/mL (≈ 5.52 µM) and the “Mean LOG10 CFU/mL of feces homogenates” value ([8]; hamster, in vivo, po) was 2.96 LOG10 CFU/mL. The “Percent Survival at Day-22” value ([8]; oral gavage TID Days 2-6, vancomycin 20 mg/kg once a day) was 83%, the “Toxin A level at Day-22” value ([8]; oral gavage, first value of A/B cell, limit of detection 0.8) was 84.2 ng/mL and the “Toxin B level at Day-22” value ([8]; oral gavage, second value of A/B cell, limit of detection 0.8) was 8 ng/mL.
